Assay results published in patent US20200087374A1, “INTERACTION BETWEEN C-PEPTIDES AND ELASTIN RECEPTOR, A MODEL FOR UNDERSTANDING VASCULAR DISEASE” (Resiliun B.V., priority 2017, published 2020).
“Also recorded” adds a separate entry of the source. Read-outs that look alike come from different tables or passages of the source.

Legend:
Human monocytes = experiment: Monocyte chemotaxis in 48-well microchemotaxis chamber; type: cell-based; settings: for effect on monocyte chemotaxis induced by C-peptide: cells exposed 30 minutes before assay, C-peptide 0.1-10 nmol/L, antibodies 1:1000; for effect on monocyte chemotaxis induced by C-peptide / effect on monocyte chemotaxis in response to VGVAPG: sugars 1 mmol/L; for induction of monocyte chemotaxis: stimulus in lower wells
Protocol: Human monocytes are isolated from freshly drawn blood of healthy volunteers using serial Ficoll/Percoll gradient centrifugation, as described elsewhere. Cells are cultured for 16 hours in RPMI-1640 media supplemented with 0.5% human serum to become quiescent after isolation. Purity of the cells is >95% as determined by flow cytometry analysis. Monocyte chemotaxis is assayed in a 48-well microchemotaxis chamber (Neuroprobe, Gaithersburg, Md.) in serum-free media. Wells in the upper and lower chamber are separated by a polyvinylpyrrolidone-free polycarbonate membrane (pore size 5 μm; Costar). Freshly isolated monocytes at a density of 5×10^5/mL are incubated for 2.5 hours with recombinant C-peptide (Sigma), before migrated cells on the bottom face of the filter are stained and counted under the light microscope. Maximal chemotactic activity is measured with 0.1 mmol/L N-formyl-methionyl-leucyl-phenylalanine (f-MLF; Sigma Chemical Co), and checkerboard analysis is used to distinguish chemotaxis from chemokinesis. Inhibition of chemotaxis is tested by competition with VGVAPG, a repetitive peptide sequence found in human and bovine elastin (Sigma Chemical Co), and BA-4, an antielastin-blocking antibody. Controls for BA-4 include mouse immunoglobulin G (IgG; PharMingen, San Diego, Calif.). Exposure of cells to lactose is used to specifically dissociate the 67-kD EBP. Controls for lactose included glucose, fructose, and mannose, none of which affect the 67-kD EBP. In each case, monocytes cells are exposed to the relevant concentrations of SEQ ID NO:41 (VGVAPG) (10-9 to 10-5 mol/L), antibodies (1:1000), or sugars (1 mmol/L) for 30 minutes before the chemotaxis assays are started. […] Monocytes in the upper wells of the assay chamber are exposed to varying concentrations of SEQ ID NO:41 (VGVAPG) for 30 minutes before stimulation by human recombinant C-peptide (0.1 nmol/L-10 nmol/L) in the lower wells. […] C-peptide-derived chemotactic activity is eliminated by competition with […]=SEQ ID NO:41 (VGVAPG), a repetitive peptide found in human elastin that binds to cellular elastin receptors, and decreases in the presence of BA-4, a monoclonal antibody that can block elastin peptide mediated chemotactic activity. Monocyte chemotaxis in response to both SEQ ID NO:41 (VGVAPG) and C-peptide is abolished in the presence of lactose, a galactosugar that specifically dissociates the 67-kD EBP, but it is unaffected by glucose, fructose, or mannose. […] Chemotaxis is also assayed by a double micropore membrane system in modified Boyden chambers. The lower compartment containing 180 micro-l of C-peptide or fragments thereof at various concentrations is separated from the upper compartment containing 200 micro-1 of cell suspension ([…] cells, such as endothelial cells or smooth muscle cells or pericytes or keratinocytes of fibroblasts or leukocytes per ml medium) by a 10 micro-m polycarbonate membrane (Millipore, Bedford, Mass.). The membranes are presoaked in bovine type I collagen (25 micro-g phosphate-buffered saline per ml) (Chemicon International, Temecula, Calif.) for 24 h at room temperature to facilitate the attachment of cells. The chambers are incubated for 18 h at 37° C. in 5% CO2-balanced air. The chambers are then disassembled, and the membrane pairs are stained with hematoxylin. The cell number of a number, such as five, random and nonoverlapping fields under a microscope is counted. For all experiments, medium alone in the bottom chamber may serve as the baseline control. To confirm directed cell migration, the concentration gradient between the upper and lower compartments may be abolished by adding various doses of elastin to the cell suspension. Chemotaxis is assayed as described above. Chemotaxis may also be studied in an ex vivo aortic ring assay measuring endothelial cell migration and proliferation

CD4+ immune cells = experiment: Boyden chamber migration of CD4+ immune cells; type: cell-based; settings: for reduction/inhibition of C-peptide specific biological activity: preliminary
Protocol: Human monocytes are isolated from freshly drawn blood of healthy volunteers using serial Ficoll/Percoll gradient centrifugation, as described elsewhere. Cells are cultured for 16 hours in RPMI-1640 media supplemented with 0.5% human serum to become quiescent after isolation. Purity of the cells is >95% as determined by flow cytometry analysis. Monocyte chemotaxis is assayed in a 48-well microchemotaxis chamber (Neuroprobe, Gaithersburg, Md.) in serum-free media. Wells in the upper and lower chamber are separated by a polyvinylpyrrolidone-free polycarbonate membrane (pore size 5 μm; Costar). Freshly isolated monocytes at a density of 5×10^5/mL are incubated for 2.5 hours with recombinant C-peptide (Sigma), before migrated cells on the bottom face of the filter are stained and counted under the light microscope. Maximal chemotactic activity is measured with 0.1 mmol/L N-formyl-methionyl-leucyl-phenylalanine (f-MLF; Sigma Chemical Co), and checkerboard analysis is used to distinguish chemotaxis from chemokinesis. […] Controls for BA-4 include mouse immunoglobulin G (IgG; PharMingen, San Diego, Calif.). Exposure of cells to lactose is used to specifically dissociate the 67-kD EBP. Controls for lactose included glucose, fructose, and mannose, none of which affect the 67-kD EBP. In each case, monocytes cells are exposed to the relevant concentrations of SEQ ID NO:41 (VGVAPG) (10-9 to 10-5 mol/L), antibodies (1:1000), or sugars (1 mmol/L) for 30 minutes before the chemotaxis assays are started. […] Chemotaxis is also assayed by a double micropore membrane system in modified Boyden chambers. […] The membranes are presoaked in bovine type I collagen (25 micro-g phosphate-buffered saline per ml) (Chemicon International, Temecula, Calif.) for 24 h at room temperature to facilitate the attachment of cells. The chambers are incubated for 18 h at 37° C. in 5% CO2-balanced air. The chambers are then disassembled, and the membrane pairs are stained with hematoxylin. The cell number of a number, such as five, random and nonoverlapping fields under a microscope is counted. For all experiments, medium alone in the bottom chamber may serve as the baseline control. To confirm directed cell migration, the concentration gradient between the upper and lower compartments may be abolished by adding various doses of elastin to the cell suspension. Chemotaxis is assayed as described above.

elastin receptor = molecular target: T1, elastin receptor (Homo sapiens, UniProt P16278); settings: cited from earlier work
T1 sequence (P16278 29-546 isoform P16278-2 limits assumed): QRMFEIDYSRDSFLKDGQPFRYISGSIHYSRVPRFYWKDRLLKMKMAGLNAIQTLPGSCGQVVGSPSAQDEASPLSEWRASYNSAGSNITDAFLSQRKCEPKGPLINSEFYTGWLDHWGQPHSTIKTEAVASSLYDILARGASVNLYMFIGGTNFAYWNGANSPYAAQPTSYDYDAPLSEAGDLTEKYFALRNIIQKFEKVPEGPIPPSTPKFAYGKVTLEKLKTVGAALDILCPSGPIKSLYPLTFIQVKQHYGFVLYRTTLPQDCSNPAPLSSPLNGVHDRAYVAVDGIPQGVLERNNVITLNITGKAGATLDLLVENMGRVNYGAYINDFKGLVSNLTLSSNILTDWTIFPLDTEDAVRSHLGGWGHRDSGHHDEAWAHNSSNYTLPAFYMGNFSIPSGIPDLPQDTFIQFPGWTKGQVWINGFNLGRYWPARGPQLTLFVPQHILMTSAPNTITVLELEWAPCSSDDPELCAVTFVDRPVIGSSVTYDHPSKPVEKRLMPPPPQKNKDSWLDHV

[1] = test system: 30 mM glucose-induced vascular dysfunction in rats; settings: cited from earlier work; for normalization/prevention of glucose-induced vascular dysfunction: 30 mM glucose, rats; for potency relative to native C-peptide: vascular dysfunction model
[2] = test system: arteriosclerotic lesion development; settings: mice; cited from earlier work
[3] = in vivo; cited from earlier work
[4] = test system: cell membrane-bound C-peptide; settings: cited from earlier work
[5] = test system: human renal tubular cells; settings: cited from earlier work
[6] = test system: MAP kinase signalling pathways; settings: cited from earlier work
Na(+),K(+)-ATPase = settings: cited from earlier work
Na^+K^+ATPase = settings: rat renal tubule cells; cited from earlier work

For `O=C(CO)[C@@H](O)[C@H](O)[C@H](O)CO` [fructose], which “effect on monocyte chemotaxis induced by C-peptide” value (Human monocytes) is on record?
Its value is “unaffected”.

And the “effect on monocyte chemotaxis in response to VGVAPG” value (Human monocytes)?
The value was “unaffected”.

What does the source list for `OC[C@H]1O[C@@H](O[C@H]2[C@H](O)[C@@H](O)C(O)O[C@@H]2CO)[C@H](O)[C@@H](O)[C@H]1O` (stereo partly shown) [lactose]?
reduction/inhibition of C-peptide specific biological activity (CD4+ immune cells; in vitro): reduction of C-peptide specific biological activity; effect on monocyte chemotaxis induced by C-peptide (Human monocytes): abolished; effect on monocyte chemotaxis in response to VGVAPG (Human monocytes): abolished; antagonism of elastin peptide (ERC-ligand) binding to elastin receptor/EBP (elastin receptor): inhibited; also recorded: antagonized; antagonism of elastin peptide (ERC-ligand) binding to elastin receptor/EBP (elastin receptor; listed as Lactose): antagonise elastin peptide binding

With “D-EAEDLQVGQVELGGGPGAGSLQPLALEGSLQ (all D-amino acids) [enantio C-peptide]” as the compound, how does the “normalization/prevention of glucose-induced vascular dysfunction” value (from here on “normalization/prevention”) [1] read?
Its value is “biologically active”.

And the “potency relative to native C-peptide” value [1]?
The value was “equipotent to native C-peptide”.

With DLQVGQVELGGGPGAGSLQPL [SEQ ID NO:20] as the compound, how does the “normalization/prevention” value [1] read?
The value was “significant normalization”.

Which “normalization/prevention” value [1] does the source give for “DLQVGQVELGGGPGAGSLQPLALEGSLQ [SEQ ID NO:10]” here?
Its value is “significant normalization”.

With “EAEDLQVGQVELGGGPGAGSLQPL (EAEDLQVGQVELGGGPGAGSLQPLAL) [SEQ ID NO:17]” as the compound, how does the “normalization/prevention” value [1] read?
Its value is “significant normalization”.

Which results are given for “EAEDLQVGQVELGGGPGAGSLQPLALEGSLQ [C-peptide]”?
increase of migration of CD4+ immune cells (CD4+ immune cells; C-peptide at 10 nM, 1% serum medium, in vitro): 100%; checkerboard analysis: chemotaxis versus chemokinesis (Human monocytes): stimulates chemotaxis without a chemokinetic effect; induction of monocyte chemotaxis (Human monocytes): stimulates a concentration-dependent increase in monocyte migration; arteriosclerotic lesion development / atherogenicity [2]: promote experimental arteriosclerotic lesion development in mice; also recorded: atherogenic in mice; half-life [3]: 30 min; plasma half-life [3]: ~30 min

Which “normalization/prevention” value [1] does the source give for “EAENPQAGAVELGGGLGGLQALALEGPPQ [pig C-peptide, pig C-peptide, midportion LGGGLG]” here?
Its value is “inactive”.

Which results are given for EGSLQ [SEQ ID NO:6]?
displacement of cell membrane-bound C-peptide [4]: displaces cell membrane-bound C-peptide; intracellular Ca2+ [5]: increases intracellular Ca(2+); intracellular Ca2+ ([5]; listed as SEQ NO:6): may induce intracellular Ca2+ increases; MAP kinase signalling pathways [6]: stimulates MAP kinase signalling pathways; Na(+),K(+)-ATPase (Na(+),K(+)-ATPase): stimulates

For ELGGGPGAG [SEQ ID NO:9], which “Na+K+ATPase activity” value (Na^+K^+ATPase) is on record?
Its value is “stimulate”.

Which “normalization/prevention” value [1] does the source give for ELGGGPGAGSLQPL [SEQ ID NO:176] here?
The value was “significant normalization”.

Which “normalization/prevention” value [1] does the source give for “EVEDPQVPQLELGGGPEAGDLQTLALEVARQ [Rat C-peptide, rat C-peptide comprising hexapeptide LGGGPE]” here?
The value was “active”.

With GGGPGAG [SEQ ID NO:8] as the compound, how does the “normalization/prevention” value [1] read?
The value was “normalize glucose-induced vascular dysfunction”.

Which “normalization/prevention” value [1] does the source give for GQVELGGGPGAGSLQPLALEGSLQ [SEQ ID NO:13] here?
Its value is “significant normalization”.

With LGGGPGAGSLQPLALEGSLQ [SEQ ID NO:14] as the compound, how does the “normalization/prevention” value [1] read?
Its value is “significant normalization”.

Which results are given for “QLSGELALPQLSGAGPGGGLEVQGVQLDEAE (retro C-Peptide)”?
normalization/prevention of glucose-induced vascular dysfunction [1]: biologically active; potency relative to native C-peptide [1]: equipotent to native C-peptide

With VGQVELGGGPGAGSLQPL [SEQ ID NO:175] as the compound, how does the “normalization/prevention” value [1] read?
The value was “significant normalization”.

What does the source list for VGVAPG [SEQ ID NO:41]?
concentration of maximal chemotactic activity (Human monocytes): 0.1 mmol/L; effect on monocyte chemotaxis induced by C-peptide (Human monocytes): eliminates monocyte chemotaxis induced by C-peptide; effect of preincubation on chemotactic response to f-MLF (Human monocytes; preincubation of monocytic cells): does not alter the chemotactic response to f-MLF; chemotactic potency compared with f-MLF (Human monocytes; same concentration of f-MLF): considerably more potent than the same concentration of f-MLF; induction of monocyte chemotaxis (Human monocytes): induces chemotaxis in a concentration-dependent manner; binding to elastin receptor (elastin receptor): binding has been demonstrated; arteriosclerotic lesion development / atherogenicity [2]: promote experimental arteriosclerotic lesion development in mice

Which results are given for VVGSPSAQDEASPL [V14 peptide]?
C-peptide-induced CD4-migration antagonized and diminished (CD4+ immune cells; V14-peptide at 1.3 microM, C-peptide at 10 nM): > 50%; reduction/inhibition of C-peptide specific biological activity (CD4+ immune cells; in vitro): inhibition of bioactivity of C-peptide; antagonism of elastin peptide (ERC-ligand) binding to elastin receptor/EBP (elastin receptor): antagonise elastin peptide binding; also recorded: inhibited; also recorded: antagonized
